Laboratory results published in ChEMBL document CHEMBL1201862, “PubChem BioAssay data set” (2004).
Activity calls are given as the source filed them.

Columns and labels:
[1] = biological target: T1, Replicative DNA helicase DnaB (Mycobacterium tuberculosis, UniProt P9WMR3); experiment: DnaB intein splicing inhibitors, dose response, biochemical, cell-free fluorescence (AID 449749); assay type: functional
T1 sequence (P9WMR3 whole entry): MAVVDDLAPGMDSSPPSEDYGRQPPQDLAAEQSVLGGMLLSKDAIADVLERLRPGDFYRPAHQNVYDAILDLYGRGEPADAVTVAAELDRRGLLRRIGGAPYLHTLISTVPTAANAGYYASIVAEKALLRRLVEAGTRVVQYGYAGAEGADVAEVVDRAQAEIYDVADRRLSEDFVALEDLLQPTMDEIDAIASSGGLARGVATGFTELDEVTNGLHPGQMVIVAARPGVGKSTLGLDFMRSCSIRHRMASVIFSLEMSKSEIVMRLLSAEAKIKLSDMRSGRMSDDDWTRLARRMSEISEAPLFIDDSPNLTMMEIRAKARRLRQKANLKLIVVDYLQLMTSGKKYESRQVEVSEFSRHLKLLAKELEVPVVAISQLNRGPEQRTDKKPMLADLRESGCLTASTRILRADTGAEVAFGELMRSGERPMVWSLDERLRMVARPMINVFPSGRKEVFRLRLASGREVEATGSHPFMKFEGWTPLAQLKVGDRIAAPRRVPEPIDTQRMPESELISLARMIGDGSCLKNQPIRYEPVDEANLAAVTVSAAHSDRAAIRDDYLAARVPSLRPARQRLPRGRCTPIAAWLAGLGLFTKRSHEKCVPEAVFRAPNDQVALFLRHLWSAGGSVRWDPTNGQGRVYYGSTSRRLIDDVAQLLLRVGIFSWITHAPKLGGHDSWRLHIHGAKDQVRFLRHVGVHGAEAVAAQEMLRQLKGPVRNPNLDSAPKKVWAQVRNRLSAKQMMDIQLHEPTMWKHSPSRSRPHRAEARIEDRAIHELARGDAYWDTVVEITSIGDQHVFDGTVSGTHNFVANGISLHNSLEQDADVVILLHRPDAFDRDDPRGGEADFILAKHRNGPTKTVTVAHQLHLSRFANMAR

Protein RecA = biological target: T2, Protein RecA (Mycobacterium tuberculosis, UniProt P9WHJ3); experiment: Fluorescence Cell-Free Homogeneous Dose Retest to Identify Inhibitors of RecA-Intein Splicing Activity. [Related pubchem assays (depositor defined):AID2097, AID2223, AID489010, AID492950]; assay type: functional
T2 sequence (P9WHJ3 whole entry): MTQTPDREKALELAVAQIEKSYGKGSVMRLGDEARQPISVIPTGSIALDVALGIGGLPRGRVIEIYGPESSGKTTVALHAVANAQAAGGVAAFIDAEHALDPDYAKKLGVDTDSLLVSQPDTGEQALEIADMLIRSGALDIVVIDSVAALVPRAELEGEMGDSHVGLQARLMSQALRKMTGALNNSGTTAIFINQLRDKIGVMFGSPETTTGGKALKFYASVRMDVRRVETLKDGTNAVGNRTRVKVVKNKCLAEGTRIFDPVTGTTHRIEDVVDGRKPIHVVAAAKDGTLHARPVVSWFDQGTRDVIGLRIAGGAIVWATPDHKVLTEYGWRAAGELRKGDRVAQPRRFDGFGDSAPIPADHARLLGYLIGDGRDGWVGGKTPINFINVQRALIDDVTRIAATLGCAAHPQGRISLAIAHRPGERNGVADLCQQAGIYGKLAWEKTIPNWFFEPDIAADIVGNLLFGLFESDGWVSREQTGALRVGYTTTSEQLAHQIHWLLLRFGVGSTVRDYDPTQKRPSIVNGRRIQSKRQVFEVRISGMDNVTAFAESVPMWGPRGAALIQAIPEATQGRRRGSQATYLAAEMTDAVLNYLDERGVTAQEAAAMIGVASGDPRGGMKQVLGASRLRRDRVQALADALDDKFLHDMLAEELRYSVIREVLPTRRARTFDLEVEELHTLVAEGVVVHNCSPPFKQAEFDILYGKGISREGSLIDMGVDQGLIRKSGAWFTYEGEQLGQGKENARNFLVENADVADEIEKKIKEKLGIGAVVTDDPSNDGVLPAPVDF

[2] = biological target: T3, Rac GTPase-activating protein 1 (Homo sapiens, UniProt Q9H0H5); experiment: blockers of MgcRacGAP-driven Rac1 GTP hydrolysis – biochemical, ADP Hunter fluorescence, primary and confirmatory, confirmation (AID 624330); assay type: functional
T3 sequence (Q9H0H5 whole entry): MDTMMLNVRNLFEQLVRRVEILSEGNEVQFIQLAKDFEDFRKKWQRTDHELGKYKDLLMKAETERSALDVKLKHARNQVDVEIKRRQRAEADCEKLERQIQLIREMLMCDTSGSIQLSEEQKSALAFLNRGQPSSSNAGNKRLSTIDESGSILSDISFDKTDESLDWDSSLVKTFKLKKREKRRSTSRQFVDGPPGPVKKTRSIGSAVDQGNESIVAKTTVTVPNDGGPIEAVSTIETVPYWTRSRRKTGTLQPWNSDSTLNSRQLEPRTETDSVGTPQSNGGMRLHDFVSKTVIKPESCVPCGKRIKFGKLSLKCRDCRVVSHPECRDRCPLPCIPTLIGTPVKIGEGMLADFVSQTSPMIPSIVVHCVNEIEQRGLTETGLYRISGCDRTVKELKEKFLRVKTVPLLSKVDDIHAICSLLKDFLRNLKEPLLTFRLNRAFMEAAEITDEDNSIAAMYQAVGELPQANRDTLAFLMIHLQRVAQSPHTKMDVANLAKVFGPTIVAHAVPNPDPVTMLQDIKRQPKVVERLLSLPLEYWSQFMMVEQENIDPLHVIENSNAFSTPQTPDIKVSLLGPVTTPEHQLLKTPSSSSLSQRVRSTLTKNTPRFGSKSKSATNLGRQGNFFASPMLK

[3] = biological target: FAD-linked sulfhydryl oxidase ALR (Homo sapiens, UniProt P55789); experiment: ALR-catalysed DTT oxidation blockers – biochemical, H2O2 detection, luminescence, cherry-pick, dose response (AID 493248)
INS1 = experiment: INS-1E survival protection against cytokine death – cell-based, luminescence, retest, dose response (AID 449756); assay type: functional; settings: Rattus norvegicus;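 also: cell death triggered by IL-1 beta plus TNF-alpha plus IFN-gamma mixture; protective hits raise ATP signal compared with cytokine alone wells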
[4] = Luminescence Cell-Based Dose Retest to Confirm Inhibitors of Cancer Stem Cells. [Related pubchem assays (depositor defined):AID2717, AID2721]; assay type: functional; settings: Homo sapiens
H9c2 = experiment: cells; assay type: functional, cell-based; settings: Rattus norvegicus, H9c2, Myocardium
[5] = Luminescence Cell-Based Dose Confirmation HTS to Identify Inhibitors of Platelet Dense Granule Release. [Related pubchem assays: 1663 (Primary HTS), 1678 (Summary of Project)]; assay type: functional
[6] = biological target: Luciferin 4-monooxygenase (Photinus pyralis, UniProt P08659); experiment: inhibition of purified Photinus pyralis luciferase – biochemical, luminescence, dose response (AID 1891)
BJ [7] = experiment: BJ-TERT-LT-ST fibroblast viability loss – cell-based, RAS-independent, luminescence, dose response (AID 1935); assay type: functional; settings: Homo sapiens;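 also: BJ fibroblasts immortalized with TERT plus LT and ST oncogenes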
[8] = DRD fibroblast viability loss – cell-based, non-viral oncogenic, luminescence, dose response (AID 1934); assay type: functional; settings: Homo sapiens
BJ [9] = experiment: BJ-TERT fibroblast viability loss – cell-based, RAS-independent, luminescence, dose response (AID 1933); assay type: functional; settings: Homo sapiens
BJ [10] = experiment: cells; assay type: functional, cell-based; settings: Homo sapiens
[11] = viability of uninfected HEp-2 cells – cell-based, HTS, cytotoxicity control for RSV inhibitor project, dose response (AID 2410); assay type: functional; settings: human respiratory syncytial virus
[12] = blockers of HIV-1 envelope-mediated cell-cell fusion – cherry-pick, dose response (AID 652057); assay type: functional, cell-based
[13] = blockers of HIV-1 ZM109 envelope-driven cell-cell fusion – HeLa effector, CEM target cells, luciferase, cherry-pick, dose response (AID 652058); assay type: functional, cell-based;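 also: luciferase signal from HIV-1 Env mediated cell-cell fusion of effector and target cells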
[14] = biological target: T4, Zinc finger protein mex-5 (Caenorhabditis elegans, UniProt Q9XUB2); experiment: potency of MEX-5 RNA-binding blockers – biochemical, C. elegans, fluorescence polarization, dose response (AID 1960)
T4 sequence (Q9XUB2 whole entry): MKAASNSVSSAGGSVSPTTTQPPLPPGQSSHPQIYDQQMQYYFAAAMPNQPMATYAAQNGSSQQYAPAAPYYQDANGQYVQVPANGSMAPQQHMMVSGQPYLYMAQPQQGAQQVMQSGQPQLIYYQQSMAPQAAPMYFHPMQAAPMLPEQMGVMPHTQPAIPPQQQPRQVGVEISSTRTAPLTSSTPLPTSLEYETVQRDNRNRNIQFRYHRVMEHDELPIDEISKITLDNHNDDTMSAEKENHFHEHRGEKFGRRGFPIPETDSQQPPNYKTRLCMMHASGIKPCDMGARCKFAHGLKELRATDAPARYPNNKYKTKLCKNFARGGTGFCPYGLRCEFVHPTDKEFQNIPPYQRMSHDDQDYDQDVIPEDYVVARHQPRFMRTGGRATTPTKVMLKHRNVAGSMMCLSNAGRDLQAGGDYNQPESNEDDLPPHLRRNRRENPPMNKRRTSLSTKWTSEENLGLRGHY

Large T antigen = Large T antigen (Simian virus 40, UniProt P03070); assay type: functional, Betapolyomavirus macacae;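 also: Confirmatory-stage PubChem screen for compounds that inhibit SV40 T antigen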
[15] = biological target: T5, RNA-binding protein pos-1 (Caenorhabditis elegans, UniProt G5EF15); experiment: disruptors of C. elegans POS-1 RNA interaction – biochemical, fluorescence polarization, dose response (AID 1964);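 also: purified POS-1 fused to maltose binding protein made in E. coli; potency of compounds blocking POS-1 binding to fluorescent RNA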
T5 sequence (G5EF15 whole entry): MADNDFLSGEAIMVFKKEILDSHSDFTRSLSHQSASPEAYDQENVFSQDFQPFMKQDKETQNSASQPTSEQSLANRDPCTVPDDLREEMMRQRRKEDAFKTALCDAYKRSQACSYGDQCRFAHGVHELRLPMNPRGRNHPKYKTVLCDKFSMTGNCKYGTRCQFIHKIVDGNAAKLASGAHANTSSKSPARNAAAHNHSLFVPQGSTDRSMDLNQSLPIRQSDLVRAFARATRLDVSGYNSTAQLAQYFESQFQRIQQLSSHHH

Chain of FAD-linked sulfhydryl oxidase ALR (P55789 whole entry): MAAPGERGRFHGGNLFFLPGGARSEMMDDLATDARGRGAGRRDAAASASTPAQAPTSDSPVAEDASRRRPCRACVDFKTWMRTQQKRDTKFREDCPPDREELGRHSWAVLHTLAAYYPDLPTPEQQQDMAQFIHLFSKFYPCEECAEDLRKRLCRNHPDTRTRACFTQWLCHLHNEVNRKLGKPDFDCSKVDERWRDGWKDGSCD
Chain of Luciferin 4-monooxygenase (P08659 whole entry): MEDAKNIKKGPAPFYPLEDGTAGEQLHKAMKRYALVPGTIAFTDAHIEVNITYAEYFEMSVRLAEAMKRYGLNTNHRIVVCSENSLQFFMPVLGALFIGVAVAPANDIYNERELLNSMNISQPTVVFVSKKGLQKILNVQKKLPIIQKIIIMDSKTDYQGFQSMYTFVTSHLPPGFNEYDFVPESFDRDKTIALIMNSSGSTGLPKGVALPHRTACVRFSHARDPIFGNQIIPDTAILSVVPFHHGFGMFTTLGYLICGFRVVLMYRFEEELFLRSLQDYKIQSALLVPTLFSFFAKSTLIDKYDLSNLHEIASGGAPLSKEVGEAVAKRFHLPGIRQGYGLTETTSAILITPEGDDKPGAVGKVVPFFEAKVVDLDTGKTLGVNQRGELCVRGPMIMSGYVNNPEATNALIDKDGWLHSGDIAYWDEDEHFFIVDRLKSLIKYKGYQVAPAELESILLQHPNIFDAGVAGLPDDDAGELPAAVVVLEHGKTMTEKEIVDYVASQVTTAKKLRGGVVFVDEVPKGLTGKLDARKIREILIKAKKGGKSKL
Chain of Large T antigen (P03070 whole entry, the tested form may be a part): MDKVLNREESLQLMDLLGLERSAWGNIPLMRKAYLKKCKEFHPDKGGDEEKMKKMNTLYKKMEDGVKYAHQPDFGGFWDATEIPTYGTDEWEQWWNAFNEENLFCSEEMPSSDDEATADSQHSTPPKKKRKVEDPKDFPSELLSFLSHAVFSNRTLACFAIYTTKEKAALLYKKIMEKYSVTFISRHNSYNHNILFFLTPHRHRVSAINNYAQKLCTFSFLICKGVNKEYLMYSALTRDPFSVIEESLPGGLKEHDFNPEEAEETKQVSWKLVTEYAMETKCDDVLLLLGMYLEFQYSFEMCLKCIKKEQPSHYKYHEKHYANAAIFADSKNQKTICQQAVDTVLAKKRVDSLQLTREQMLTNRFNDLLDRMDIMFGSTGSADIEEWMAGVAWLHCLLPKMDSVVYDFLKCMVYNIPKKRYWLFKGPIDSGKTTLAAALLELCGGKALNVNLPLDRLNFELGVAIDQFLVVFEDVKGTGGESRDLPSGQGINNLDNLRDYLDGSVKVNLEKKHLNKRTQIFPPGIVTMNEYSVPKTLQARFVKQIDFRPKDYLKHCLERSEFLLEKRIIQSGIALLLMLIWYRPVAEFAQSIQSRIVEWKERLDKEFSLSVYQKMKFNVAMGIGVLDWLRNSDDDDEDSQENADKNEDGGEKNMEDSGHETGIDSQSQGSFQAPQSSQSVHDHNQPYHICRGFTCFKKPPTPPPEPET

## N#Cc1c(N)n(CCOC(=O)c2ccc(Cl)cc2)c2nc3ccccc3nc12
[1]
  AC50: 3.18 µM (active)
Protein RecA
  EC50: 1.8 µM (active)

## C=CCn1c(SCC(=O)Nc2ccc(N(C)C)cc2)nnc1-c1cccc(C)c1
[2]
  IC50: 42.8 µM (active)

## COc1ccc(-c2cc(-c3nnc(S)n3-c3ccccc3OC)[nH]n2)cc1
[3]
  AC50: 41.1 µM (active)

## O=C(C#Cc1ccccc1)Nc1cccc(F)c1
INS1
  AC50: 8.05 µM (active)
[3]
  AC50: 2 µM (active)
[4]
  AC50: 2.35 µM (active)

## O=C(c1[nH]nc2c1CCC2)N1CCCC(Nc2cccc(F)c2)C1 (centres undefined)
[3]
  AC50: 19.5 µM (active)

## COc1cc(-c2nnc(-c3cc(OC)c(OC)c(OC)c3)o2)cc(OC)c1OC
H9c2
  IC50: > 79 µM (inactive)
[5]
  EC50: 41 µM (active)
[6]
  EC50: > 112 µM (not active)

## CSc1ccc(CN2CCC(N3CC(C)OC(C)C3)CC2)cc1 (centres undefined)
[2]
  IC50: 72.4 µM (active)

## COc1cc(N=Nc2c(C)n(C)n(-c3ccccc3)c2=O)ccc1N
[2]
  IC50: 43.4 µM (active)

## COC(=O)N1CCc2c(sc(NC(=O)C3=COCCO3)c2C#N)C1
BJ [7]
  EC50: 16.1 µM (active)
[8]
  EC50: 12.5 µM (active)
BJ [9]
  EC50: 8.87 µM (inconclusive)
BJ [10]
  EC50: 48.9 µM (active)

## COc1cccc(-c2ncc3ccccn23)c1
[2]
  IC50: 136 µM (active)
[11]
  CC50: 44.1 µM (active)

## COCc1n[nH]c2c1C(c1ccccc1OC)C(C#N)=C(N)O2 (centres undefined)
[1]
  AC50: 22 µM (active)
Protein RecA
  EC50: 4.77 µM (active)

## N#CCSc1nc2cc(C(=O)N3CCC(C(N)=O)CC3)ccc2c2nc3ccccc3n12
H9c2
  IC50: > 79 µM (inactive)

## NS(=O)(=O)c1ccc(CCNC(=O)CN2CCN(c3ccccc3O)CC2)cc1
[3]
  AC50: 3.94 µM (active)

## COc1cc(-c2nc3cnccn3c2NC(C)(C)CC(C)(C)C)ccc1O
[3]
  AC50: 4.22 µM (active)

## O=c1[nH]n(Cc2ccccc2)c(=O)c2ccccc12
H9c2
  IC50: > 79 µM (inactive)

## CCOc1cc(C2C(C#N)=C(N)Oc3[nH]nc(CC)c32)ccc1OCCN1CCOCC1 (centres undefined)
[1]
  AC50: 27.2 µM (active)
Protein RecA
  EC50: 7.2 µM (active)

## O=C1c2cc([N+](=O)[O-])ccc2-c2ncccc21
BJ [7]
  EC50: > 150 µM (not active)
[8]
  EC50: > 150 µM (not active)
BJ [9]
  EC50: 24.4 µM (active)
[1]
  AC50: 36.7 µM (active)
Protein RecA
  EC50: 11.1 µM (active)
BJ [10]
  EC50: > 150 µM (not active)

## O=C(CN(c1ccc2c(c1)OCCO2)S(=O)(=O)c1ccccc1)Nc1ccc2c(c1)OCO2
H9c2
  IC50: > 79 µM (inactive)

## Cn1c(=O)c2c(nc(NCc3ccc4c(c3)OCO4)n2C)n(C)c1=O
H9c2
  IC50: 36.1 µM (inactive)

## COC(=O)c1ccc(CSc2nc3ccccc3c(=O)n2Cc2ccco2)o1
[3]
  AC50: 4.51 µM (active)

## Cc1cc(-c2cc(C)c(N)cc2C)c(C)cc1N
[2]
  IC50: 101 µM (active)

## COc1ccc(NC2CCCN(C(=O)CCc3cccc(F)c3)C2)cc1 (centres undefined)
[2]
  IC50: 74.6 µM (active)

## O=C(COC(=O)Cc1nnc(O)c2ccccc12)Nc1c(Br)cc([N+](=O)[O-])cc1Br
H9c2
  IC50: > 79 µM (inactive)

## CCN1C(=O)[C@H]2[C@H]3CN=C(SCc4ccc(C#N)cc4)N3[C@@](Cc3ccccc3)(C(=O)OC)[C@H]2C1=O
H9c2
  IC50: > 79 µM (inactive)

## CCOC(=O)c1cc(-c2ccc(/C=N\n3cnnc3)o2)ccc1Cl
H9c2
  IC50: > 79 µM (inactive)

## Cc1cc(-c2nnc(S)n2/N=C/c2ccc(Cl)c([N+](=O)[O-])c2)[nH]n1
[3]
  AC50: 3.45 µM (active)

## C[C@@H]1CN([C@H](C)CO)C(=O)c2cc(C#Cc3ccncc3)cnc2O[C@@H]1CN(C)S(=O)(=O)c1ccccc1F
[12]
  AC50: 30 µM (active)
[13]
  AC50: 25.1 µM (active)

## COc1cc(/C=N/Nc2nc(O)nnc2C)ccc1O
[14]
  EC50: 31.1 µM (active)
[3]
  AC50: 4.13 µM (active)
Large T antigen
  IC50: 6.41 µM (active)
[15]
  EC50: 56.8 µM (active)

## COc1ccc(NC(=O)NS(=O)(=O)c2ccc(C)cc2)cc1OC
[2]
  IC50: 36 µM (active)
